The values that follow come from publication PMC5931576, “Allosteric modulation of the farnesoid X receptor by a small molecule” (Scientific Reports, 2018).

The test system of series [1] is T1, TGR5.
T1 construct: Eurofins (Brussels, Belgium)
The experiment in a line: TGR5 assay (Eurofins). The class given is cell-based. The note with it: 1 and 10 µM.

The nature of series [2]: Metabolism assay (liver microsomes). As to conditions: rat liver microsomes, 10 μM. In kind it is in vitro ADME, Sprague−Dawley rats. The procedure:
In vitro biological evaluation […]
MgCl2). After 5 min, the reaction was started by the addition of 13 μL of microsome mix from the liver of Sprague−Dawley rats (Invitrogen; 20 mg protein/mL in 0.1 M phosphate buffer) in a shaking water bath at 37 °C.
The reaction was stopped by addition of 250 μL of ice-cold methanol at 0, 15, 30 and 60 min. The samples were diluted with 250 μL of DMSO and centrifuged at 10000 g for 5 min at 4 °C. The supernatants were analyzed and test compound was quantified by HPLC: mobile phase: MeOH 83%/H2O 17%/formic acid 0.1%; flow-rate:
1 mL/min; stationary phase: MultoHigh Phenyl phase, 5 μm, 250 × 4, precolumn, phenyl, 5 μm, 20 × 4; detection wavelength: 330 and 254 nm; injection volume: 50 μL. Control samples were performed to check the stability of 4 or 16 in the reaction mixture: first control was without NADPH, which is needed for the enzymatic activity of the microsomes, second control was with inactivated microsomes (incubated for 20 min at 90 °C), third control was […]
quantified by an external calibration curve, where data are expressed as means ± SEM of single determinations […]
obtained in three independent experiments. […]
as mean percent of remaining compound ± SEM; n=3): 4: 0 min: 100 ± 0%, 15 min: 86 ± 3%, 30 min: 74 ± 1%,

Series [3] relates to SHP mRNA. In words: FXR target gene quantification (qRT-PCR) in HepG2 cells: SHP. The class given is cell-based. The note with it: for SHP mRNA, mean fold activation compared to DMSO (0.1%): HepG2, 24 h.
Series [4] has as its system Abl. The experiment in a line: Kinase inhibition assay (radiometric or HTRF). In kind it is biochemical.
Series [5] relates to kinases that interact with FXR. In words: Kinase inhibition profile, kinases that interact with FXR. In kind it is biochemical.
Series [6] deals with T2, RXRα.
T2 construct: expressed in transfected cells; host or cells: HEK293T
The experiment in a line: Gal4-DBD-RXRα-LBD hybrid reporter gene assay. In kind it is cell-based, human. From the text: The Gal4-fusion receptor plasmids pFA-CMV-hPPARα-LBD[34], pFA-CMV-hPPARγ-LBD[34], pFA-CMV-hPPARδ-LBD[34], pFA-CMV-hLXRα-LBD[35], pFA-CMV-hLXRβ-LBD[35], pFA-CMV-hRXRα-LBD[36], pFA-CMV-hRXRβ-LBD[36], pFA-CMV-hRXRγ-LBD[36], pFA-CMV-hRARα-LBD[36], pFA-CMV-hRARβ-LBD[36], pFA-CMV-hRARγ-LBD[36], pFA-CMV-hVDR-LBD[36] and pFA-CMV-hCAR-LBD[36] coding for the hinge region and ligand binding domain (LBD) of the canonical isoform of the respective nuclear receptor have been reported previously. pFR-Luc (Stratagene) was used as reporter plasmid and pRL-SV40 (Promega) for normalization of transfection efficiency and cell growth.
HEK293T cells were grown in DMEM high glucose, supplemented with 10% FCS, sodium pyruvate (1 mM), penicillin (100 U/mL) and streptomycin (100 μg/mL) at 37 °C and 5% CO2. The day before transfection, HEK293T cells were seeded in 96-well plates (2.5·10^4 cells/well). Before transfection, medium was changed to Opti-MEM without supplements. Transient transfection was carried out using Lipofectamine LTX reagent (Invitrogen) according to the manufacturer’s protocol with pFR-Luc (Stratagene), pRL-SV40 (Promega) and pFA-CMV-hNR-LBD. […] Luminescence was measured with an Infinite M200 luminometer (Tecan Deutschland GmbH) or a Tecan Spark 10 M luminometer (Tecan). […]

The test system of series [7] is PDGF-Rα. The experiment in a line: Kinase inhibition assay (radiometric or HTRF). In kind it is biochemical.
For series [8], the system named is BSEP mRNA. The experiment in a line: FXR target gene quantification (qRT-PCR) in HepG2 cells: BSEP. In kind it is cell-based. As to conditions: for BSEP mRNA, mean fold activation compared to DMSO (0.1%): HepG2, 24 h.

In the case of `CS(=O)(=O)O.CS(=O)(=O)O.CS(=O)(=O)O.CS(=O)(=O)O.Cc1ccc(NC(=O)c2ccc(Cl)cc2)cc1Nc1nccc(-c2cccnc2)n1.Cc1ccc(NC(=O)c2ccc(Cl)cc2)cc1Nc1nccc(-c2cccnc2)n1.O.O.O` [compound 16, 4-Chloro-N-(4-methyl-3-(4-(pyridin-3-yl)pyrimidin-2-ylamino)phenyl)benzamide dimesylate-sesquihydrate], the “TGR5 modulation (agonistic or antagonistic activity)” value in series [1] is “does not modulate”. The “mean percent of remaining compound” value was 100 ± 0% in series [2] (0 min), 92 ± 1% in series [2] (15 min), 88 ± 1% in series [2] (30 min) and 86 ± 1% in series [2] (60 min). In addition, the “CDCA-induced SHP mRNA expression compared to 1 alone” value in series [3] (HepG2, 16 co-incubated with 1) was “about 3 fold”. Moreover, the “SHP mRNA, mean fold activation compared to DMSO (0.1%)” value in series [3] (0.3 µM alone) is given as 2.32 ± 0.18; in series [3] (16 (0.3 µM) + 1 (20 µM)), 1.64 ± 0.23; in series [3] (16 (0.3 µM) + 1 (50 µM)) it was 12.70 ± 1.04. In addition, the “Inhibition of Abl” value in series [4] is “potent inhibitor”. Besides, the “Inhibition of kinases that interact with FXR” value in series [5] is recorded as “does not markedly inhibit”. In series [6], the “RXR agonistic activity (activation of RXRα-Gal4 chimera receptor)” value is “did not activate”. Also, the “Inhibition of PDGF-Rα” value in series [7] was “potent inhibitor”. For the same molecule, the “CDCA-induced BSEP mRNA expression compared to 1 alone” value in series [8] (HepG2, 16 co-incubated with 1) is on record as “about 3 fold”. Besides, the “BSEP mRNA, mean fold activation compared to DMSO (0.1%)” value in series [8] (0.3 µM alone) stood at 2.64 ± 0.07; in series [8] (16 (0.3 µM) + 1 (20 µM)), 4.56 ± 0.77; in series [8] (16 (0.3 µM) + 1 (50 µM)), 29.37 ± 3.32.
